Three compounds from patent US10703751B2, “Amino-imidazopyridine derivatives as Janus kinase inhibitors and pharmaceutical use thereof” (LEO Pharma A/S, priority 2017, dated 2020) can be followed below.

The target of one data set is JAK1 (Homo sapiens (Human), UniProt P23458). Kind of data set: JAK1 kinase assay (HTRF). It counts as biochemical. Particulars: for JAK2/JAK1 ratio / JAK3/JAK1 ratio: ratio of the respective EC50. The protocol: (§1) Human baculovirus-expressed Janus kinase (JAK) 1, 2, 3 and tyrosin kinase (TYK) 2 were purchased from Carna Biosciences, Inc (#08-144, -045, -046, -147 resp.). All four purified enzymes contain only the catalytic domain. JAK1 (aa 850-1154) and TYK2 (aa 871-1187) are expressed with an N-terminally fused GST-tag, and JAK2 and JAK3 with an N-terminally fused His-tag. Inhibition of phosphorylation of a synthetic peptide was measured in an HTRF-based assay (CisBio #62TKOPEC). First, 75 nL of test compound solution (100% DMSO) was added to a white shallow 384-well plate (NUNC #264706) using a Labcyte ECHO 550 liquid handler. Thereafter, 1 μL of compound dilution buffer (50 mM HEPES, 0.05% bovine serum albumin) and 2 μL of TK solution (TK substrate-biotin in kinase buffer [1× enzymatic buffer from HTRFKinEASE TK kit, 1 mM DTT]) was added. Then, 5 μL kinase-ATP mix (prepared in kinase buffer) was added to the wells and the plates were incubated at RT for 20 (JAK2, 3 and TYK2) to 40 (JAK1) min. For all four kinases a concentration of ATP that corresponded to the Km for ATP was used. The final concentrations of buffers, substrate, kinase and ATP were: JAK1: 50 mM Hepes buffer pH 7.0, 0.01% BSA, 10 mM MgCl2, 1 mM DTT, 7 μM ATP, 50 nM SEB, 1 μM TK Substrate-Biotin and 5 ng/well JAK1; JAK2: 50 mM Hepes buffer pH 7.0, 0.01% BSA, 5 mM MgCl2, 1 mM DTT, 4 μM ATP, 1 μM TK Substrate-Biotin and 0.1 ng/well JAK2; JAK3: 50 mM Hepes buffer pH 7.0, 0.01% BSA, 5 mM MgCl2, 1 mM DTT, 2 μM ATP, 1 μM TK Substrate-Biotin and 0.3 ng/well JAK3; TYK2: 50 mM Hepes buffer pH 7.0, 0.01% BSA, 5 mM MgCl2, 1 mM DTT, 13 μM ATP, 50 nM SEB, 1 μM TK Substrate-Biotin and 0.8 ng/well TYK2. Thereafter, the kinase reaction was stopped by adding 4 μL detection mix (final concentrations: 50 mM Hepes buffer pH 7.0, 0.01% BSA, 0.8 M KF, 20 mM EDTA, 42 nM Streptavidin-XL665 and 1:400 STK Ab Cryptate) and the plates were incubated overnight in the dark. A PerkinElmer Envision reader was used to quantify the HTRF signal using the following filters; 320 nm excitation filter, 665 nm emission filter and a 615 nm 2nd emission filter. A ratio ((665/615)×10^4) was calculated for each well.
Sequence of JAK1 (P23458 850-1154): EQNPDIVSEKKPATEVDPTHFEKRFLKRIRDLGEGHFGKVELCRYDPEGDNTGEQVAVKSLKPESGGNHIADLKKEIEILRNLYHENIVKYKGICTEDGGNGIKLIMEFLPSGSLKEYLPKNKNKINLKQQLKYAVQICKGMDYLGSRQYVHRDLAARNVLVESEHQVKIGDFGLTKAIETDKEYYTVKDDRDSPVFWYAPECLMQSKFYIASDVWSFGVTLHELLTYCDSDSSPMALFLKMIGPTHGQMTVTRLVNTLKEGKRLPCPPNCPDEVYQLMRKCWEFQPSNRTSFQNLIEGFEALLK
In general terms: In TR-FRET formats the signal depends on donor and acceptor labels being close together.

The target of the next data set is CYP3A4 (Homo sapiens (Human), UniProt P08684). The data set is described as follows: Reversible CYP inhibition, 3A4. Type of data set: in vitro ADME. Particulars: for IC50: up to 50 μM for Example 3, up to 25 μM for Examples 644 and 641. The protocol:
(§2) Reversible CYP inhibition, time dependent CYP inhibition (TDI) and CYP induction was tested at Cyprotex PLC according to authority guidance.

Data set [1] addresses panel of 23 Tyrosine kinases, including JAK1, and 68 Serine and Threonine kinases. The data set is described as follows: Kinase selectivity panel at CARNA Biosciences. The conditions noted are these: inhibitor concentration approximately 1000 times JAK1 EC50. It counts as biochemical. The protocol:
The kinase selectivity profiles of Example 3 of the present invention as well as Examples 644 and 641 of WO2011086053 were evaluated at CARNA Biosciences Inc. with a panel consisting of 23 Tyrosine kinases, including JAK1 (ABL, CSK, EGFR, EPHA2, EPHB1, EPHB4, FGFR1, FLT3, IGF1R, ITK, JAK1, JAK3, KDR, […], PDGFRα, PDGFRβ, PYK2, SRC, TIE2, TRKA and TYRO3) as well as 68 Serine and Threonine kinases ([…], AKT1, AMPKα1/β1/γ1, AurA, AurB, AurC, BRSK2 ([ATP]=Km value), CaMK1a ([ATP]=Km value), CaMK2a ([ATP]=Km value), CaMK4, CDC2/CycB1, CDC7/ASK, CDK2/CycA2, CDK2/CyE1, CDK3/CyE1 ([ATP]=Km value), CDK4/CyD3, CDK6/CyD3, CDK7/CycH/MAT1, CDK9/CycT1, CHK1, CK1ε, CK2α1/β, CK2α2/β, CLK1, CLK2, DAPK1, DYRK1B, Erk2, GSK3α, GSK3β, HGK, IKKβ, IRAK4 ([ATP]=Km value), JNK2, LOK ([ATP]=Km value), MAPKAP2, MLK1, MLK2, MNK2 ([ATP]=Km value), MST1, MST2 ([ATP]=Km value), NEK1, NEK2, NEK6, NEK7, NEK9, p38α, p70S6K, PAK1 ([ATP]=Km value), PAK2, PAK5 ([ATP]=Km value), PBK, PDK1, PIM1, PIM2, PKACα, PKCα, OKD2, PKN1 ([ATP]=Km value), PLK1, PLK2 ([ATP]=Km value), ROCK1, RSK1, SGK, skMLCK ([ATP]=Km value) and TSSK1). […] The percentage of inhibition was measured at an inhibitor concentration of approximately 1000 times JAK1 EC50.

The target in a further data set is TYK2 (Homo sapiens (Human), UniProt P29597). The data set is described as follows: TYK2 kinase assay (HTRF). It counts as biochemical. The protocol: as §1
Sequence of TYK2 (P29597 871-1187): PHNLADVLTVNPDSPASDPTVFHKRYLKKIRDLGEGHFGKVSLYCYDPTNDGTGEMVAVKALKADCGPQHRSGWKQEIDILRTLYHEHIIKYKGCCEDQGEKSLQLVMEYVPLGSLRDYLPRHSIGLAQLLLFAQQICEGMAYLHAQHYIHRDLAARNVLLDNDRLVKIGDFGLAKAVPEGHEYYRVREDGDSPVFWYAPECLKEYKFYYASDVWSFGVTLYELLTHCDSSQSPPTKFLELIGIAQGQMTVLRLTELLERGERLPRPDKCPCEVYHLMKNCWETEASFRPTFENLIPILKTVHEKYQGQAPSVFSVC
For another data set, the target named is JAK2 (Homo sapiens (Human), UniProt O60674). Kind of data set: JAK2 kinase assay (HTRF). It counts as biochemical. Particulars: ATP at Km (4 μM). The protocol: as §1
Sequence of JAK2 (O60674 849-1124): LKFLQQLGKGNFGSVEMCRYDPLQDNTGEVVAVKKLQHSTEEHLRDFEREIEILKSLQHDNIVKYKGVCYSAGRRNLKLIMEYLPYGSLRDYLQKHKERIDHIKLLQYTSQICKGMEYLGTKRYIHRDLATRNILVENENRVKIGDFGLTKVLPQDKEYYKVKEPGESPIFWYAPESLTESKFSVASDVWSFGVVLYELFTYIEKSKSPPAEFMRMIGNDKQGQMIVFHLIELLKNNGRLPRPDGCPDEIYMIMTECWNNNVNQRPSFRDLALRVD
In another data set the target is JAK3 (Homo sapiens (Human), UniProt P52333). The data set is described as follows: JAK3 kinase assay (HTRF). Type of data set: biochemical. The protocol: as §1
Sequence of JAK3 (P52333 822-1111): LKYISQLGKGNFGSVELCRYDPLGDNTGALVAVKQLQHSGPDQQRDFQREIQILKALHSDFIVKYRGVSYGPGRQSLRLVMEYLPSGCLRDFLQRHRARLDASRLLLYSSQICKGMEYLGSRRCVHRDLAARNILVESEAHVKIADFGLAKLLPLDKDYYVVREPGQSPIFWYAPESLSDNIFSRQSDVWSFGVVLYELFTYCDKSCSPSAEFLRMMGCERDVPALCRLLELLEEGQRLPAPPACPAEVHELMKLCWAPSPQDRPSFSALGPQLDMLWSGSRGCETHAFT
In a further data set the target is CYP2C19 (Homo sapiens (Human), UniProt P33261). The data set is described as follows: Reversible CYP inhibition, 2C19. Type of data set: in vitro ADME. The conditions noted are these: up to 50 μM for Example 3, up to 25 μM for Examples 644 and 641. The protocol: as §2
Sequence of CYP2C19 (P33261 whole entry): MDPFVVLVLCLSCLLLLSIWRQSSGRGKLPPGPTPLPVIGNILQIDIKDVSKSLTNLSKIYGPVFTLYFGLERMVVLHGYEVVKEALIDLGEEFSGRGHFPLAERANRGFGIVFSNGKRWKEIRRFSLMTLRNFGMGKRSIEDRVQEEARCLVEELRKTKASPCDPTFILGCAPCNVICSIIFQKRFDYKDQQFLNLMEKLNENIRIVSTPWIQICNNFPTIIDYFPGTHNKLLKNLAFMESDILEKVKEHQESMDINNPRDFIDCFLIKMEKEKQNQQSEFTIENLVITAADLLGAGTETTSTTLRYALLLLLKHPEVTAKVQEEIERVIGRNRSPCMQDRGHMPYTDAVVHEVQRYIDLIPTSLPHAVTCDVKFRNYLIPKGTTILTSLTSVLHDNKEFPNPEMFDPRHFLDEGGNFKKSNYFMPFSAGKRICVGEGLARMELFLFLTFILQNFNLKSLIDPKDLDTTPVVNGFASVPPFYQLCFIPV
The target in the next data set is CYP1A2 (Homo sapiens (Human), UniProt P05177). Kind of data set: Reversible CYP inhibition, 1A2. Type of data set: in vitro ADME. The protocol: as §2
Sequence of CYP1A2 (P05177 whole entry): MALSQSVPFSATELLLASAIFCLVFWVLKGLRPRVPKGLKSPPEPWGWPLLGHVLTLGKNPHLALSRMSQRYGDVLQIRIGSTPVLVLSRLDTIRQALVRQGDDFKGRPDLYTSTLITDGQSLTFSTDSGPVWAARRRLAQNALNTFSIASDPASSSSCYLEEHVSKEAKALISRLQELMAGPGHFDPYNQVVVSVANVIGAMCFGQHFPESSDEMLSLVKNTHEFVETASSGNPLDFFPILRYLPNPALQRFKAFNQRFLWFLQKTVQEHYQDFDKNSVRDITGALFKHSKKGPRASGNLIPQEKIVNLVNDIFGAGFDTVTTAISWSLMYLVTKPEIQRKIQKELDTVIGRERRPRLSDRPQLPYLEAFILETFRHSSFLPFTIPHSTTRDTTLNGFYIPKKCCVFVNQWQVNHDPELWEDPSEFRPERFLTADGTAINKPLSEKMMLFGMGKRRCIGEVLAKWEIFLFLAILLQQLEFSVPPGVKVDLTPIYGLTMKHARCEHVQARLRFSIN
[2] abbreviates: reversible, up to 50 μM for Example 3, up to 25 μM for Examples 644 and 641, read-out: 1A2 IC50.

One may read the EC50 as the midpoint of the concentration-response curve. Higher therefore signals lower potency in that assay. Usually IC50 stands for the midpoint of a concentration-inhibition curve.

“Also recorded” adds a separate entry of the source. Where two headings read alike, the source gives them in different places.

Sequence of CYP3A4 (P08684 whole entry): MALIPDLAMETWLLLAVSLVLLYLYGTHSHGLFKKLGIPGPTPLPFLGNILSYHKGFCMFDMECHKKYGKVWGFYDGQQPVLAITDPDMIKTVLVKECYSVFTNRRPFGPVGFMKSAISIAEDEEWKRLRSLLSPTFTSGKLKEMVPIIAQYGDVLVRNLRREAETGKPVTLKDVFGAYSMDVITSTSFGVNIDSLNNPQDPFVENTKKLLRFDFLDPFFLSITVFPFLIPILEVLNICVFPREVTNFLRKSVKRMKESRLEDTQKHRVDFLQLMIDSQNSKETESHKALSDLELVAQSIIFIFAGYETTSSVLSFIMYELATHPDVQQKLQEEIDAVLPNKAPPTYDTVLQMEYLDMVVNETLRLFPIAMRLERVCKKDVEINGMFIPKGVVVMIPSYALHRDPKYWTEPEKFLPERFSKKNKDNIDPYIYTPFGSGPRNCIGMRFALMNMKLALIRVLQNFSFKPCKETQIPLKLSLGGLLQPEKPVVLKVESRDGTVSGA

On to `CNc1cc2c(cn1)nc([C@@H](C)O)n2[C@H]1CC[C@H](CC#N)CC1` [Example 3, trans-2-[4-[2-[(1R)-1-Hydroxyethyl]-6-(methylamino)imidazo[4,5-c]pyridin-1-yl]cyclohexyl]acetonitrile], for which the EC50 on JAK1 (ATP at Km (7 μM)) turned out to be 3.48 nM; at TYK2 (ATP at Km (13 μM)), 32 nM; on JAK2, 171 nM; on JAK3 (ATP at Km (2 μM)), 1700 nM. For the same compound, the JAK2/JAK1 ratio on JAK1 is reported as 51. Besides, the JAK3/JAK1 ratio on JAK1 was 489. Further, the IC50 against CYP3A4, against CYP2C19 and at CYP1A2 (setting [2]) was over 50000 nM each time. The “Kinases of the panel inhibited by 50% or more (summary)” value in data set [1] is listed as “none of the tested kinases except JAK1 were inhibited by more than 50%”. The “Tyrosine kinases inhibited by 50% or more at an ATP concentration of 1 mM (n ≥ 2)” value in data set [1] was “JAK1”.

Turning to `C[C@@H](O)c1nc2cnc3[nH]ccc3c2n1[C@H]1CC[C@H](CC#N)CC1` [Example 644 of WO2011086053], the EC50 on JAK1 (ATP at Km (7 μM)) worked out at 0.34 nM; at TYK2 (ATP at Km (13 μM)), 3.32 nM; on JAK2, 3.34 nM; at JAK3 (ATP at Km (2 μM)), 13.1 nM. Also, the “CYP3A4 inhibition (in words)” value at CYP3A4 is given as “weak CYP3A4 inhibition”. For the same compound, the IC50 against CYP3A4 is 10800 nM; at CYP2C19 it was over 25000 nM; at CYP1A2 (setting [2]), over 25000 nM. In addition, in data set [1], the “Kinases of the panel inhibited by 50% or more (summary)” value is given as “inhibited nine other kinases besides JAK1 by 50% or more”. Besides, the “Serine and Threonine kinases inhibited by 50% or more (n ≥ 2)” value in data set [1] is “BRSK2, [ATP] = 50 μM; also recorded: LOK, [ATP] = 100 μM; also recorded: MST2, [ATP] = 75 μM; also recorded: PKN1, [ATP] = 25 μM”. The “Tyrosine kinases inhibited by 50% or more at an ATP concentration of 1 mM (n ≥ 2)” value in data set [1] is “JAK1 and FGFR1 and FLT3 and KDR and PDGFRα and PDGFRβ”.

As for `C[C@@H](O)c1nc2cnc3[nH]ccc3c2n1[C@H]1CC[C@H](C#N)CC1` [Example 641 of WO2011086053], at JAK1, the EC50 worked out at 6.81 nM, the JAK2/JAK1 ratio came out at 33 and the JAK3/JAK1 ratio was 109. In addition, at CYP3A4, the “CYP3A4 inhibition (in words)” value is recorded as “weak CYP3A4 inhibition” and inhibition was half-maximal at 10900 nM (IC50). In data set [1], the “Kinases of the panel inhibited by 50% or more (summary)” value is “inhibited nine other kinases besides JAK1 by 50% or more”; the “Serine and Threonine kinases inhibited by 50% or more (n ≥ 2)” value is “BRSK2, [ATP] = 50 μM; also recorded: LOK, [ATP] = 100 μM; also recorded: MST1, [ATP] = 1 mM; also recorded: MST2, [ATP] = 75 μM; also recorded: PKN1, [ATP] = 25 μM”; the “Tyrosine kinases inhibited by 50% or more at an ATP concentration of 1 mM (n ≥ 2)” value was “JAK1 and FGFR1 and FLT3 and KDR and PDGFRα”. The compound also came in with a concentration giving a half-maximal response (EC50) at TYK2 of 115 nM. The compound also registered a half-maximal effective concentration (EC50) on JAK2 of 228 nM. In addition, the midpoint of the response on JAK3, the EC50, lay at 739 nM. The same compound returned an IC50 on CYP2C19 of over 25000 nM. The same compound displayed an IC50 against CYP1A2 of over 25000 nM.
